For 32 compounds, IC50 results are on record in patent publication US20230078764A1 (Yumanity Therapeutics, Inc., priority 2019, published 2023).

In one experiment the target is T1, human SCD1 (Homo sapiens, UniProt O00767).
T1 construct: expressed in transfected cells; host or cells: yeast strain with OLE1 deleted, plasmid-borne human SCD1 (selected in SD-Ura)
T1 sequence (O00767 1-359): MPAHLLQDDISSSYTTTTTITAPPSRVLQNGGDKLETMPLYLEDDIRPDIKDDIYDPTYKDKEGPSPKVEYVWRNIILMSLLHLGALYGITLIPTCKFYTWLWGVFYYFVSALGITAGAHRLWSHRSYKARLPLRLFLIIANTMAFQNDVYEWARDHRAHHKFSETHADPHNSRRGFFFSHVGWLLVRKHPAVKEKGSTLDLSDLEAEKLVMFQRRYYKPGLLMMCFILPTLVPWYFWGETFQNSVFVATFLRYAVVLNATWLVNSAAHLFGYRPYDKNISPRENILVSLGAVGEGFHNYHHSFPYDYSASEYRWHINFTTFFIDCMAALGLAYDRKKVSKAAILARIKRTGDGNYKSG
Briefly: Growth inhibition of yeast strain expressing human SCD1 as sole desaturase (OLE1 deleted), OD600 readout. The class given is cell-based.

The next experiment addresses T2, human SCD5 (Homo sapiens, UniProt Q86SK9).
T2 construct: expressed in transfected cells; host or cells: yeast strain with OLE1 deleted, plasmid-borne human SCD5 (selected in SD-Ura)
T2 sequence (Q86SK9 1-330): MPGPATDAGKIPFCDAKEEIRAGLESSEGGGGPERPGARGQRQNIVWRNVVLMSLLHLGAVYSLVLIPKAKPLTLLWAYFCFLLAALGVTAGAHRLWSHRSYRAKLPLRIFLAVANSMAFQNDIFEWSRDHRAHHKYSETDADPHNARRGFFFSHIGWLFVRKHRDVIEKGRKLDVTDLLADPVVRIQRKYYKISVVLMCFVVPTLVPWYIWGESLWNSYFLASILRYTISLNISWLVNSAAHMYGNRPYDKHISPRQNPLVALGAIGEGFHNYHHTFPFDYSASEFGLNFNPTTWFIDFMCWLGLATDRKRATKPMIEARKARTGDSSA
Briefly: Growth inhibition of yeast strain expressing human SCD5 as sole desaturase (OLE1 deleted), OD600 readout. The class given is cell-based.

The mark [1] stands for this setting: yeast strain expressing human SCD1 as sole desaturase, growth (OD600) after 40 h at 30° C., read-out: SCD1 IC50.
Where [2] appears, read: yeast strain expressing human SCD5 as sole desaturase, growth (OD600) after 40 h at 30° C., read-out: SCD5 IC50.

Read-outs that look alike come from different tables or passages of the source.

As to `COCc1ncc(C(=O)Nc2ccc(Cc3cccc(Cl)c3)cn2)c(OC)n1` [Compound 110, N-(5-(3-chlorobenzyl)pyridin-2-yl)-4-methoxy-2-(methoxymethyl)pyrimidine-5-carboxamide], the values for the IC50 at human SCD1 (setting [1]) and on human SCD5 (setting [2]) were 3940 nM and 220 nM, respectively.
In the same order, the values of `O=C(Nc1ccc(Cc2cc(F)cc(Cl)c2)cn1)c1ccc(CO)nc1` [Compound 111, N-(5-(3-chloro-5-fluorobenzyl)pyridin-2-yl)-6-(hydroxymethyl)nicotinamide] are 10 nM and 10 nM.
In the same order, the values of `O=C(Nc1ccc(Cc2ccc(F)c(Cl)c2)cn1)c1ccc(CO)nc1` [Compound 112, N-(5-(3-chloro-4-fluorobenzyl)pyridin-2-yl)-6-(hydroxymethyl)nicotinamide] are 10 nM and 10 nM.
As to `Cc1nccc(C(=O)Nc2ccc(Cc3ccc(F)c(C#N)c3)cn2)n1` [Compound 113, N-(5-(3-cyano-4-fluorobenzyl)pyridin-2-yl)-2-methylpyrimidine-4-carboxamide], the 50% inhibitory concentration (IC50) on human SCD1 (setting [1]) came to 80 nM; at human SCD5 (setting [2]) it was 10 nM.
The like results for `Cc1nccc(C(=O)Nc2ccc(Cc3cccc(Cl)c3)cn2)n1` [Compound 114, N-(5-(3-chlorobenzyl)pyridin-2-yl)-2-methylpyrimidine-4-carboxamide] were, in that order, 50 nM and 10 nM.
In the case of `Cc1nccc(NC(=O)c2ccc(Cc3cccc(F)c3)cn2)n1` [Compound 115, 5-(3-Fluorobenzyl)-N-(2-methylpyrimidin-4-yl)picolinamide], the IC50 at human SCD1 (setting [1]) is above 45000 nM; on human SCD5 (setting [2]), 50 nM.
In the same order, the values of `O=C(Nc1ccc(Cc2ccc(F)cc2)cn1)c1ccc(CO)nc1` [Compound 116, N-(5-(4-fluorobenzyl)pyridin-2-yl)-6-(hydroxymethyl)nicotinamide] are 10 nM and 10 nM.
In the same order, the values of `Cn1cc(C(=O)Nc2ccc(Cc3cccc(F)c3)cn2)cc(F)c1=O` [Compound 117, 5-fluoro-N-(5-(3-fluorobenzyl)pyridin-2-yl)-1-methyl-6-oxo-1,6-dihydropyridine-3-carboxamide] are 630 nM and 70 nM.
`CC1CC(C(=O)Nc2ccc(Cc3cccc(F)c3)cn2)=NN(C)C1=O` (stereo not shown) [Compound 118, N-(5-(3-fluorobenzyl)pyridin-2-yl)-1,5-dimethyl-6-oxo-1,4,5,6-tetrahydropyridazine-3-carboxamide]: the IC50 at human SCD1 (setting [1]) is above 45000 nM; on human SCD5 (setting [2]), 440 nM.
On to `O=C(Nc1ccc(Cc2cccc(F)c2)cn1)c1ccc(CO)nc1` [Compound 119, N-(5-(3-fluorobenzyl)pyridin-2-yl)-6-(hydroxymethyl)nicotinamide], for which the IC50 at human SCD1 (setting [1]) and at human SCD5 (setting [2]) was 10 nM in each case.
Consider `N#Cc1ccc(C(=O)Nc2ccc(Cc3cccc(Cl)c3)cn2)cn1` [Compound 120, N-(5-(3-chlorobenzyl)pyridin-2-yl)-6-cyanonicotinamide], for which the results for the IC50 on human SCD1 (setting [1]) and on human SCD5 (setting [2]) were above 45000 nM and 30 nM, respectively.
In the case of `NCc1ccc(C(=O)Nc2ccc(Cc3cccc(Cl)c3)cn2)cn1` [Compound 121, 6-(aminomethyl)-N-(5-(3-chlorobenzyl)pyridin-2-yl)nicotinamide 2,2,2-trifluoroacetate], the IC50 at human SCD1 (setting [1]) and at human SCD5 (setting [2]) was 20 nM each time.
In the case of `O=C(Nc1ccc(Cc2cccc(Cl)c2)cn1)c1ccc(CO)nn1` [Compound 122, N-(5-(3-chlorobenzyl)pyridin-2-yl)-6-(hydroxymethyl)pyridazine-3-carboxamide], the IC50 on human SCD1 (setting [1]) and at human SCD5 (setting [2]) was 10 nM in each case.
Consider `Cc1cc(NC(=O)C2=NN(C)C(=O)CC2)ncc1Cc1cccc(Cl)c1` [Compound 123, N-(5-(3-chlorobenzyl)-4-methylpyridin-2-yl)-1-methyl-6-oxo-1,4,5,6-tetrahydropyridazine-3-carboxamide], for which the IC50 at human SCD1 (setting [1]) was above 45000 nM; on human SCD5 (setting [2]), 8940 nM.
Turning to `CN1N=C(C(=O)Nc2ncc(Cc3cccc(Cl)c3)cc2F)CCC1=O` [Compound 124, N-(5-(3-chlorobenzyl)-3-fluoropyridin-2-yl)-1-methyl-6-oxo-1,4,5,6-tetrahydropyridazine-3-carboxamide], the values for the IC50 at human SCD1 (setting [1]) and at human SCD5 (setting [2]) were above 45000 nM and 10000 nM, respectively.
In the same order, the values of `O=C(Nc1ccc(CO)nc1)c1ccc(Cc2cccc(F)c2)cn1` [Compound 125, 5-(3-Fluorobenzyl)-N-(6-(hydroxymethyl)pyridin-3-yl)picolinamide] are 10 nM and 10 nM.
The like results for `Cc1ccc(NC(=O)c2ccc(Cc3cccc(F)c3)cn2)nn1` [Compound 126, 5-(3-Fluorobenzyl)-N-(6-methylpyridazin-3-yl)picolinamide] were, in that order, 830 nM and 230 nM.
In the same order, the values of `COc1cc(C(=O)Nc2ccc(Cc3cccc(F)c3)cn2)nn(C)c1=O` [Compound 127, N-(5-(3-fluorobenzyl)pyridin-2-yl)-5-methoxy-1-methyl-6-oxo-1,6-dihydropyridazine-3-carboxamide] are 3120 nM and 220 nM.
Take `Cn1cc(C(=O)Nc2ccc(Cc3cccc(Cl)c3)cn2)cc(F)c1=O` [Compound 128, N-(5-(3-chlorobenzyl)pyridin-2-yl)-5-fluoro-1-methyl-6-oxo-1,6-dihydropyridine-3-carboxamide]: the results for the IC50 on human SCD1 (setting [1]) and on human SCD5 (setting [2]) were 180 nM and 10 nM, respectively.
For `N#Cc1ccc(C(=O)Nc2ccc(Cc3cccc(Cl)c3)cn2)nc1` [Compound 129, N-(5-(3-chlorobenzyl)pyridin-2-yl)-5-cyanopicolinamide], the half-inhibitory concentration (IC50) is above 45000 nM at human SCD1 (setting [1]) and 50 nM on human SCD5 (setting [2]).
`N#Cc1ccc(C(=O)Nc2ccc(Cc3ccc(F)c(Cl)c3)cn2)nc1` [Compound 130, N-(5-(3-chloro-4-fluorobenzyl)pyridin-2-yl)-5-cyanopicolinamide]: the IC50 at human SCD1 (setting [1]) was above 45000 nM; at human SCD5 (setting [2]), 40 nM.
The like results for `O=C(Nc1ccc(Cc2cccc(Cl)c2)cn1)c1ccc(CO)nc1` [Compound 131, N-(5-(3-chlorobenzyl)pyridin-2-yl)-6-(hydroxymethyl)nicotinamide] were, in that order, 10 nM and 10 nM.
The like results for `O=C(Nc1ccc(CO)nc1)c1ccc(Cc2cccc(Cl)c2)cn1` [Compound 132, 5-(3-Chlorobenzyl)-N-(6-(hydroxymethyl)pyridin-3-yl)picolinamide] were, in that order, 10 nM and 10 nM.
As to `N#Cc1ccc(C(=O)Nc2ccc(Cc3cccc(F)c3)cn2)cc1` [Compound 133, 4-cyano-N-(5-(3-fluorobenzyl)pyridin-2-yl)benzamide], the IC50 on human SCD1 (setting [1]) was above 45000 nM; at human SCD5 (setting [2]) it was 230 nM.
The like results for `Cc1nccc(C(=O)Nc2ccc(Cc3cc(F)cc(C#N)c3)cn2)n1` [Compound 134, N-(5-(3-cyano-5-fluorobenzyl)pyridin-2-yl)-2-methylpyrimidine-4-carboxamide] were, in that order, 90 nM and 10 nM.
In the same order, the values of `COCc1ccc(C(=O)Nc2ccc(Cc3cccc(Cl)c3)cn2)cn1` [Compound 136, N-(5-(3-chlorobenzyl)pyridin-2-yl)-6-(methoxymethyl)nicotinamide] are 1260 nM and 490 nM.
As to `O=C(Nc1ccc(Cc2cccc(Cl)c2)cn1)c1ccc(CO)cn1` [Compound 137, N-(5-(3-chlorobenzyl)pyridin-2-yl)-5-(hydroxymethyl)picolinamide], the IC50 against human SCD1 (SCD1 IC50) and against human SCD5 (SCD5 IC50) was 10 nM in each case.
Take `Cc1cnc(C(=O)Nc2ccc(Cc3ccc(F)c(Cl)c3)cn2)cn1` [Compound 138, N-(5-(3-chloro-4-fluorobenzyl)pyridin-2-yl)-5-methylpyrazine-2-carboxamide]: the IC50 on human SCD1 (setting [1]) is 550 nM; on human SCD5 (setting [2]), 80 nM.
The like results for `Cc1cnc(C(=O)Nc2ccc(Cc3cccc(F)c3)cn2)nc1` [Compound 139, N-(5-(3-fluorobenzyl)pyridin-2-yl)-5-methylpyrimidine-2-carboxamide] were, in that order, 4930 nM and 60 nM.
Turning to `Cn1cccc(C(=O)Nc2ccc(Cc3cccc(F)c3)cn2)c1=O` [Compound 140, N-(5-(3-fluorobenzyl)pyridin-2-yl)-1-methyl-2-oxo-1,2-dihydropyridine-3-carboxamide], the IC50 is 290 nM at human SCD1 (setting [1]) and 10 nM on human SCD5 (setting [2]).
The like results for `Cc1ncc(C(=O)Nc2ccc(Cc3cccc(F)c3)cn2)cn1` [Compound 141, N-(5-(3-fluorobenzyl)pyridin-2-yl)-2-methylpyrimidine-5-carboxamide] were, in that order, above 45000 nM and 160 nM.
In the case of `O=C(Nc1ccc(Cc2cccc(F)c2)cn1)c1ccnnc1` [Compound 143, N-(5-(3-fluorobenzyl)pyridin-2-yl)pyridazine-4-carboxamide], the values for the IC50 on human SCD1 (setting [1]) and on human SCD5 (setting [2]) were 510 nM and 370 nM, respectively.
